Literature values, collected in patent US20070281996A1, “Creatine prodrugs, compositions and uses thereof” (XenoPort, Inc., priority 2006, published 2007).

Experiments:
[1] = healthy volunteers, oral creatine administration (Dechent et al.)
[2] = following oral creatine supplementation

## CN(CC(=O)O)C(=N)N [creatine, Creatine]
[1]
  increase of cerebral creatine phosphate: about 10%
[2]
  duration of increase in tissue creatine phosphate levels: > 14 days
